Source: US8314140B2, “4-hydroxythiobenzamide derivatives of drugs” (Antibe Therapeutics Inc., priority 2006, dated 2012)
“Also recorded” adds a separate entry of the source.

Columns and labels:
[1] = biological target: T1, COX-1 (Rattus norvegicus, UniProt Q63921); experiment: Whole blood thromboxane B2 synthesis in treated rats; format: in vivo; conditions: 60 μmol/kg oral; versus vehicle; FIG. 11
T1 construct: whole blood thromboxane synthesis, which occurs via COX-1; from tissue; host or cells: rat whole blood, ex vivo after oral dosing
T1 sequence (Q63921 27-602): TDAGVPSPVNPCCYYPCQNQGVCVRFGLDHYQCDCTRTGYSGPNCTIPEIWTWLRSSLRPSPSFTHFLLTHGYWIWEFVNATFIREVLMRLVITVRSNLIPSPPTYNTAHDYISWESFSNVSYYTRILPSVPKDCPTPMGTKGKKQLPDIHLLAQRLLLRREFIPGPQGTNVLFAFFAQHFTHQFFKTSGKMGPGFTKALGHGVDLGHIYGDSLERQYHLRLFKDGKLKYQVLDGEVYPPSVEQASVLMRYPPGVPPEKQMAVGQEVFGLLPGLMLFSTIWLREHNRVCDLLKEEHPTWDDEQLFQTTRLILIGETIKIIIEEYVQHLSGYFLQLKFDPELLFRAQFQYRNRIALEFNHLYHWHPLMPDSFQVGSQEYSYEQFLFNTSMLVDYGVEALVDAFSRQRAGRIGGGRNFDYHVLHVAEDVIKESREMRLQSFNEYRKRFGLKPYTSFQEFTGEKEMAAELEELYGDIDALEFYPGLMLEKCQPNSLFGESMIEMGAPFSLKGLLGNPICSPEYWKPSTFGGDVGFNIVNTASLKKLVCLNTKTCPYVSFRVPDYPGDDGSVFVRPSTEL
Procedure: Inhibition of COX-1 was also measured using the same rats. […] The samples were then centrifuged for 3 min at 9,000 g and the supernatant was frozen at −80° C. for subsequent measurement of thromboxane B2 concentrations using a specific ELISA.
Inhibition of COX-1 was also measured using the same rats, using the same method as described for FIG. 11.

[2] = tested on: gastric damage; experiment: Incidence of gastric damage at end of the leukocyte adherence experiment; conditions: for Percent Incidence of Gastric Damage: intragastric 30 μmol/kg (naproxen and Compound XX 60 μmol/kg), end of experiment
From the text: (§1) Briefly, post-capillary mesenteric venules in anestheitized rats are examined under a light microscope.

[3] = tested on: gastric damage; experiment: Gastric damage score 3 h after oral dosing; format: in vivo, rat; conditions: oral 60 μmol/kg, 3 hours; FIG. 10
From the text: There were 5 rats in each group.
Each group consisted of 5 rats.

[4] = tested on: leukocyte adherence to the vascular endothelium; experiment: Leukocyte adherence after NSAID or derivative, intravital microscopy (Example 21); format: in vivo, rat; conditions: for number of adherent leukocytes compared to the parent drug alone: comment on Table 2
From the text: as §1

[5] = tested on: gastric ulcers; experiment: Healing of acetic acid-induced gastric ulcers; format: in vivo, rat; conditions: oral twice-daily for 4 days; 30 μmol/kg (naproxen, Compound XX 60 μmol/kg); FIG. 17
Procedure: Gastric ulcers were induced via serosal application of acetic acid, as described by Elliott et al., A nitric oxide-releasing nonsteroidal anti-inflammatory drug accelerates gastric ulcer healing in rats. […] After 4 days of such treatment, the rats were euthanized and the stomach was excised and photographed. The area (in mm^2) of the ulcer was determined planimetrically by an individual unaware of the treatments given to the rats.

[6] = tested on: carrageenan-induced paw edema; experiment: Carrageenan hindpaw edema model; format: in vivo, rat; conditions: oral 30 min prior to carrageenan; diclofenac 1, 3 or 10 mg/kg; Compound XVII equimolar to diclofenac 3 mg/kg; FIG. 14
Procedure: Male, Wistar rats weighing 175-200 g were given the test compounds orally 30 min prior to subplantar injection of 100 ul of 1% lambda carrageenan.

[7] = tested on: visceral pain perception; experiment: Rat model of visceral pain perception (colorectal distension, AWR score); format: in vivo
Procedure: A rat model of visceral pain perception, a pre-clinical model of irritable bowel syndrome, was used in the following example. Rats (male, Wistar, 200-250 g, obtained from Charles River, Monza, Italy), were housed in plastic cages and maintained under controlled conditions with 12-hours light/dark cycle with lights on at 7.00 AM. Tap water and standard laboratory chow were freely available. Before experiments, rats were individually trained by spending 2-3 hours per day in a plexiglass cage for 2-3 days. It allowed them to adjust to a movement-restriction environment. Food was withheld for 12 hours before colorectal distension (CRD) recording were performed. Experiments were performed in awake rats and were conducted in a blind manner in that the observer was not aware of the identity of drug administered to each animal.
In the testing day, rats were sedated with ether inhalation and a 2 cm long latex balloon was inserted intrarectally 2 cm from the anal verge and fixed at the base of the tail. The balloon was connected via a double-barreled cannula to a pressure transducer to continuously monitoring the rectal pressure by a computer (PowerLab PC, A.D. Instruments, Milford, Mass., USA) and to a syringe for inflation/deflation of the balloon. The rats were then housed in a small cage (20×8×8 cm) on an elevated Plexiglas™ platform and allowed to wake up and adapt for 1 hour. After recovery from sedation, animals underwent the CRD procedure and behavioral responses were tested. The night before the experiments, the balloons were inflated and left overnight so the latex stretched and the balloons became compliant.
CRD of 20 seconds, performed every 5 minutes, was applied in increment of 0.4 ml starting from 0.4 ml up to 1.6 ml water. To achieve an accurate measurement of the colonic parameters and perception, the distensions were repeated twice for each intensity and data for each animal were averaged for analysis. Each animal underwent a double set of CRD. Twenty minutes after the first sequence of CRD (0.4 mL-1.6 ml water), drugs were administered intraperitoneally (i.p.) and a second set of CRD was performed. Behavioral responses during the first and the second set of CRD were assessed and compared.
Behavioral response to CRD was assessed by measuring the abdominal withdrawal reflex (AWR) using a semiquantitative score (1).
A rat model of visceral pain perception as described above was used to compare pain perception scores for 5-amino-2-(4-thiocarbamoyl-phenoxycarbonyloxy)-benzoic acid (Compound XXVII) with or without glibenclamide, an inhibitor of ATP-sensitive K^+ (KATP) channels.
Experiments were carried out as described in Example 13, except that groups of 5 rats each were treated with vehicle, trimebutine maleate (10 mg/kg), or with equimolar doses of trimebutine thiocarbamoylbenzoate (Compound III) or thiocarbamolybenzoate alone.

[8] = H2S generation in buffer and liver homogenate (Example 15); format: in vitro ADME, rat; conditions: 1 mM compound, FIG. 6
Procedure: (Compound XXVII) was tested for H2S generation under three different conditions. Concentrations of H2S that were generated within 1 hour from 1 mM concentrations of L-cysteine, 4-HBT (4-hydroxythiobenzamide) and 5-amino-2-(4-thiocarbamoyl-phenoxycarbonyloxy)-benzoic acid were measured. H2S release was tested under three conditions: (i) when the compound was in buffer, (ii) when the compound was in a liver homogenate, and (iii) when the compound was in the liver homogenate together with an inhibitor of cystathionine γ-lyase (PAG=DL-propargylglycine; 2 mM). Results are shown in FIG. 6. *p<0.05 compared to the release from the vehicle group. ^ψp>0.05 versus the corresponding ‘homogenate’ group. The enzymatic capacity for H2S production was determined using the same reactor as described previously (Khan et al. (1980) Microchem J 25: 388-395, incorporated herein by reference). Two ml of an assay reaction mixture was introduced in the reactor. The mixture contained 1 mM L-cysteine (or compound), 2 mM pyridoxal 5′-phosphate, 100 mM potassium phosphate buffer (pH=7.4). A constant stream of nitrogen was passed through the mixture via gas-inlet capillary. Reactions were initiated by transferring the tubes from ice bath to a 37° C. water bath. The stream of nitrogen carried the sulfide acid in the second reactor containing 4 ml of sulfide anti-oxidant buffer (SAOB) solution, consisting of 2M KOH, 1M salicylic acid and 0.22M ascorbic acid at pH 12.8[5]. After incubating at 37° C. for 90 minutes, 1 ml of 10% trichloroacetic acid solution was added to mixture to stop the reaction. The remainder H2S in the mixture was carried out via nitrogen stream by other 60 minutes of incubation at 37° C. The concentration of sulfide in SAOB solution was measured with a sulfide sensitive electrode (Model 9616 S^2−/Ag^+ electrode, Orion Research, Beverly, Mass., USA). For studies in which the test compounds were incubated in liver homogenate, 100-150 mg of isolated rat livers were homogenized in 1 ml of ice-cold T-PER protein extractor. The homogenates were added to the reaction mixture at a concentration of 10% (wt/vol). DL-propargylglycine 2 mM was incubated with liver homogenates for 5 min at 37° C. prior the enzyme reaction. Khan, S. U. Morris, G. F. and Hidiroglou, M. (1980) Rapid estimation of sulfide in rumen and blood with a sulfide-specific ion electrode. Microchem J. 25:388-395, incorporated herein by reference.

[9] = biological target: COX-1 (Homo sapiens, UniProt P23219); conditions: FIG. 16
COX-1 (Homo sapiens, UniProt P23219), sequence (P23219 24-599): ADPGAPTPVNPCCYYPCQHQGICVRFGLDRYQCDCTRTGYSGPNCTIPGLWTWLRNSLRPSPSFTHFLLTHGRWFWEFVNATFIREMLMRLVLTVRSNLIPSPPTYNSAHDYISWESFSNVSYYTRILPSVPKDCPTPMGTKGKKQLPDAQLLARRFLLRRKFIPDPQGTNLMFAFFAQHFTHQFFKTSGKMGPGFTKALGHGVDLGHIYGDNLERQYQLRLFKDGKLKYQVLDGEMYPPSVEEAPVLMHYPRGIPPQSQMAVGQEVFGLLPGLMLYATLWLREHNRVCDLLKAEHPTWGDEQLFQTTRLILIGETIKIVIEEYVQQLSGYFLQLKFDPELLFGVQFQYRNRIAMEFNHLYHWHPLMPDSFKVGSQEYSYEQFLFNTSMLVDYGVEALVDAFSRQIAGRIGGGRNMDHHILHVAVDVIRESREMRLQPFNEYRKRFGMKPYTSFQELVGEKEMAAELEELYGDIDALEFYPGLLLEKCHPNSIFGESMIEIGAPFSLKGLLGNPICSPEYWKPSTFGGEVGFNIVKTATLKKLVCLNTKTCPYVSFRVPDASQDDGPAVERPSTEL
Procedure: Aliquots (0.5 mL) of blood from healthy human volunteers were added to glass tubes containing 10 uL of methanol alone, or one of the test drugs prepared such that the final concentration would be 0.1, 0.3, 1 or 3 μM. The tubes were placed in water bath (37° C.) with gentle shaking for 45 min, after which they were centrifuged (1,000×g) for 10 minutes. The concentration of thromboxane B2 in each sample was then determined using a specific ELISA, as in the studies shown in FIG. 11.

## COc1ccc2cc(C(C)C(=O)Oc3ccc(C(N)=S)cc3)ccc2c1 (centres unmarked) [Compound XX, 2-(6-Methoxy-naphthalen-2-yl)-propionic acid 4-thiocarbamyl-phenyl ester]
[1]
  thromboxane B2 synthesis in blood (COX-1 activity): significantly (*p<0.05) inhibited COX-1 activity
[2]; rat, in vivo
  percent incidence of gastric damage compared to the parent drug alone: significantly reduced the percent incidence of gastric damage
[3]
  gastric damage score: significantly less damage than naproxen itself; also recorded: not detectable
[4]
  number of adherent leukocytes compared to the parent drug alone: significantly reduced the number of adherent leukocytes
[5]
  gastric ulcer healing (ulcer surface area): significantly greater healing

## CC(=O)Oc1ccccc1C(=O)Oc1ccc(C(N)=S)cc1 [Compound XVI, 2-Acetoxy-benzoic acid 4-thiocarbamoyl-pheny ester]
[2]; comment on Table 2
  percent incidence of gastric damage compared to the parent drug alone: significantly reduced the percent incidence of gastric damage
[2]
  Percent Incidence of Gastric Damage: 0%
other
  melting point: 154 to 156 °C
[4]
  number of adherent leukocytes compared to the parent drug alone: significantly reduced the number of adherent leukocytes

## O=C(O)Cc1ccccc1Nc1c(Cl)cccc1Cl [diclofenac, reference compound]
[6]
  paw edema (paw volume increase): dose-dependently reduced paw edema

## CCC(COC(=O)c1cc(OC)c(OC)c(OC)c1)(c1ccccc1)N(C)C.NC(=S)c1ccc(C(=O)O)cc1 (centres unmarked) [trimebutine thiocarbamoylbenzoate, 3,4,5-trimethoxybenzoic acid 2-(dimethylamino)-2-phenylbutyl ester 4-thiocarbamoyl benzoate]
[7]; doses equimolar to trimebutine maleate 10 mg/kg, FIG. 7
  perception score (AWR Score): more effective than either trimebutine maleate or thiocarbamoylbenzoate in reducing visceral pain

## Cc1ccc(Nc2c(F)cccc2Cl)c(CC(=O)Oc2ccc(C(N)=S)cc2)c1 [Compound XVIII, 4-thiocarbamoylphenyl 2-(2-(2-chloro-6-fluorophenylamino)-5-methylphenyl)acetate]
[2]; comment on Table 2
  percent incidence of gastric damage compared to the parent drug alone: no incidences of gastric damage
[2]
  Percent Incidence of Gastric Damage: 0%
other
  melting point: 120 to 122 °C
[4]
  number of adherent leukocytes compared to the parent drug alone: significantly reduced the number of adherent leukocytes

## N[C@@H](CS)C(=O)O [L-cysteine, reference compound]
[8]; buffer pH 7.4, 37° C.
  H2S generation in buffer: did not release significant H2S
[8]; liver homogenate plus DL-propargylglycine 2 mM
  H2S generation in liver homogenate with PAG: markedly inhibited by PAG

## COc1ccc(Cl)cc1C(=O)NCCc1ccc(S(=O)(=O)NC(=O)NC2CCCCC2)cc1 [glibenclamide, reference compound]
[7]; 0.8 mL colorectal distention, glibenclamide 10 mg/kg i.p. 30 min before, FIG. 3
  pain perception score after glibenclamide pretreatment: did not affect the pain perception

## COc1ccc2c(c1)c(CC(=O)Oc1ccc(C(N)=S)cc1)c(C)n2C(=O)c1ccc(Cl)cc1 [Compound XIX, [1-(4-Chloro-benzoyl)-5-methoxy-2-methyl-1-H-indol-3-yl]-acetic acid 4-thiocarbamoyl-phenyl ester]
[2]
  Percent Incidence of Gastric Damage: 0%
[9]; 0.1, 0.3, 1 or 3 μM, 45 min, 37° C.
  thromboxane synthesis by human blood (COX-1 activity): concentration-dependent inhibition of COX-1 activity
[9]; concentrations of 1 and 3 μM
  thromboxane synthesis by human blood (COX-1 activity) versus indomethacin: significantly greater (*p<0.05) inhibition of COX-1 activity than that produced by indomethacin
other
  melting point: 224 to 226 °C
[4]; intragastric 30 μmol/kg (naproxen and Compound XX 60 μmol/kg), mean±SEM
  Number of Adherent Leukocytes: 3.0 ± 0.4 per 100 μm vessel length
